Experiments:
Format in all cases: in vivo
[1] = tested on: Amaranthus retroflexus (AMARE); assay: Pre-emergence herbicidal activity (B1); details: Test 1a; pre-emergence application; rate 1000 g/ha; evaluated after 13 days; score 0-5
Procedure: (§1) Seeds of a variety of test species were sown in standard soil in pots: Triticum aestivium (TRZAW), Avena fatua (AVEFA), Alopecurus myosuroides (ALOMY), Echinochloa crus-galli (ECHCG), Lolium perenne (LOLPE), Zea Mays (ZEAMX), Abutilon theophrasti (ABUTH), Amaranthus retroflexus (AMARE) and Setaria faberi (SETFA). […] The test plants were then grown in a glasshouse under controlled conditions (at 24/16° C., day/night; 14 hours light; 65% humidity) and watered twice daily. After 13 days, the test was evaluated (5=total damage to plant; 0=no damage to plant).

[2] = tested on: Abutilon theophrasti (ABUTH); assay: Pre-emergence herbicidal activity (B1); details: Test 1a; pre-emergence application; rate 1000 g/ha; evaluated after 13 days; score 0-5
Procedure: as §1

Lolium perenne (LOLPE) [3] = assay: Pre-emergence herbicidal activity (B1); details: pre-emergence application, rate 1000 g/ha, evaluated after 13 days, score 0-5
Procedure: as §1

Setaria faberi (SETFA) [4] = assay: Pre-emergence herbicidal activity (B1); details: pre-emergence application, rate 1000 g/ha, evaluated after 13 days, score 0-5
Procedure: as §1

Zea Mays (ZEAMX) [5] = assay: Pre-emergence herbicidal activity (B1); details: Test 1a; pre-emergence application; rate 1000 g/ha; evaluated after 13 days; score 0-5
Procedure: as §1

[6] = tested on: Echinochloa crus-galli (ECHCG); assay: Pre-emergence herbicidal activity (B1); details: pre-emergence application, rate 1000 g/ha, evaluated after 13 days, score 0-5
Procedure: as §1

[7] = tested on: Amaranthus retroflexus (AMARE); assay: Post-emergence herbicidal activity (B2); details: Test B2a; post-emergence application; rate 1000 g/ha; evaluated after 13 days; score 0-5
Procedure: as §1

[8] = tested on: Abutilon theophrasti (ABUTH); assay: Post-emergence herbicidal activity (B2); details: Test B2a; post-emergence application; rate 1000 g/ha; evaluated after 13 days; score 0-5
Procedure: as §1

Lolium perenne (LOLPE) [9] = assay: Post-emergence herbicidal activity (B2); details: post-emergence application, rate 1000 g/ha, evaluated after 13 days, score 0-5
Procedure: as §1

Setaria faberi (SETFA) [10] = assay: Post-emergence herbicidal activity (B2); details: post-emergence application, rate 1000 g/ha, evaluated after 13 days, score 0-5
Procedure: as §1

Zea Mays (ZEAMX) [11] = assay: Post-emergence herbicidal activity (B2); details: Test B2a; post-emergence application; rate 1000 g/ha; evaluated after 13 days; score 0-5
Procedure: as §1

[12] = tested on: Echinochloa crus-galli (ECHCG); assay: Post-emergence herbicidal activity (B2); details: post-emergence application, rate 1000 g/ha, evaluated after 13 days, score 0-5
Procedure: as §1

[13] = tested on: Alopecurus myosuroides (ALOMY); assay: Pre-emergence herbicidal activity (B1); details: Test 1b; pre-emergence application; rate 1000 g/ha; evaluated after 13 days; score 0-5
Procedure: as §1

Avena fatua (AVEFA) [14] = assay: Pre-emergence herbicidal activity (B1); details: Test 1b; pre-emergence application; rate 1000 g/ha; evaluated after 13 days; score 0-5
Procedure: as §1

[15] = tested on: Triticum aestivium (TRZAW); assay: Pre-emergence herbicidal activity (B1); details: Test 1b; pre-emergence application; rate 1000 g/ha; evaluated after 13 days; score 0-5
Procedure: as §1

[16] = tested on: Alopecurus myosuroides (ALOMY); assay: Post-emergence herbicidal activity (B2); details: Test B2b; post-emergence application; rate 1000 g/ha; evaluated after 13 days; score 0-5
Procedure: as §1

Avena fatua (AVEFA) [17] = assay: Post-emergence herbicidal activity (B2); details: Test B2b; post-emergence application; rate 1000 g/ha; evaluated after 13 days; score 0-5
Procedure: as §1

[18] = tested on: Triticum aestivium (TRZAW); assay: Post-emergence herbicidal activity (B2); details: Test B2b; post-emergence application; rate 1000 g/ha; evaluated after 13 days; score 0-5
Procedure: as §1

SMILES | damage to plant, ALOMY [13] | damage to plant, LOLPE (Lolium perenne (LOLPE) [3]; Test 1b) | damage to plant, SETFA (Setaria faberi (SETFA) [4]; Test 1b) | damage to plant, AVEFA (Avena fatua (AVEFA) [14]) | damage to plant, TRAZW [15] | damage to plant, ECHCG ([6]; Test 1b) | damage to plant, ALOMY [16] | damage to plant, LOLPE (Lolium perenne (LOLPE) [9]; Test B2b) | damage to plant, SETFA (Setaria faberi (SETFA) [10]; Test B2b) | damage to plant, AVEFA (Avena fatua (AVEFA) [17]) | damage to plant, TRAZW [18] | damage to plant, ECHCG ([12]; Test B2b) | also measured
Cc1nc(-c2cncnc2)cnc1N [Compound G1] |  |  |  |  |  |  |  |  |  |  |  |  | damage to plant, AMARE [1]: 0; damage to plant, ABUTH [2]: 0; damage to plant, LOLPE (Lolium perenne (LOLPE) [3]; Test 1a): 0; damage to plant, SETFA (Setaria faberi (SETFA) [4]; Test 1a): 2; damage to plant, ZEAMX (Zea Mays (ZEAMX) [5]): 1; damage to plant, ECHCG ([6]; Test 1a): 1; damage to plant, AMARE [7]: 2; damage to plant, ABUTH [8]: 1; damage to plant, LOLPE (Lolium perenne (LOLPE) [9]; Test B2a): 1; damage to plant, SETFA (Setaria faberi (SETFA) [10]; Test B2a): 2; damage to plant, ZEAMX (Zea Mays (ZEAMX) [11]): 2; damage to plant, ECHCG ([12]; Test B2a): 1
CNc1ncc(-c2cncc(F)c2)nc1C [Compound G17, 2-methylamino-3-methyl-5-(5-fluoropyrid-3-yl)pyrazine] | 0 | 0 | 0 | 0 | 0 | 0 | 0 | 0 | 1 | 0 | 0 | 1 | 
C=Cc1nc(-c2cncc(F)c2)cnc1N [Compound G18] | 0 | 0 | 0 | 0 | 0 | 0 | 0 | 0 | 1 | 1 | 0 | 1 | 
CCc1nc(-c2cncc(F)c2)cnc1N [Compound G19] | 0 | 1 | 4 | 0 | 0 | 1 | 0 | 0 | 3 | 1 | 0 | 2 | 
C[Si](C)(C)C#Cc1nc(-c2cncc(F)c2)cnc1N [Compound G20] | 0 | 0 | 0 | 0 | 0 | 0 | 0 | 0 | 0 | 1 | 1 | 0 | 
CCCNc1ncc(-c2cncc(F)c2)nc1C(F)(F)F [Compound G23] | 1 | 1 | 3 | 0 | 0 | 2 | 0 | 1 | 4 | 1 | 0 | 4 | 
